Measured values published in article PMC3752001 (European journal of pharmacology, 2012).
pEC50, pIC50: −log10 of the molar value. Where “and” joins values, the source holds several entries; their conditions need not be identical. Equal values may be shown once. Where a name gives a salt, the structure may show the parent alone. Read-outs that look alike come from different tables or passages of the source.

What was measured:
[1] = target: LS β2D218A α4β2 receptors (Homo sapiens, UniProt P17787+P43681, D218A); assay: Two-electrode voltage clamp, LS β2D218A mutant preparation in Xenopus oocytes; type: cell-based; settings: for nH ± S.E.M.: ACh concentration/response, LSβ2D218A
[2] = target: α7 nicotinic acetylcholine receptors (Homo sapiens, UniProt P36544); assay: Two-electrode voltage clamp, α7 receptors in Xenopus oocytes; type: cell-based
[3] = target: low sensitivity (LS) α4β2 nicotinic acetylcholine receptors (Homo sapiens, UniProt P17787+P43681); assay: Two-electrode voltage clamp, low sensitivity; type: cell-based; settings: for Imax (%) potentiation: dFBr co-applied with 100 μM acetylcholine (EC75)
[4] = target: high sensitivity (HS) α4β2 nicotinic acetylcholine receptors (Homo sapiens, UniProt P17787+P43681); assay: Two-electrode voltage clamp, high sensitivity; type: cell-based
[5] = target: HS β2D218A α4β2 receptors (Homo sapiens, UniProt P17787+P43681, D218A); assay: Two-electrode voltage clamp, HS β2D218A mutant preparation in Xenopus oocytes; type: cell-based; settings: for nH ± S.E.M.: ACh concentration/response, HSβ2D218A
[6] = test system: human and rat 5-hydroxytryptamine transporters (SERT); settings: HEPES concentrations greater than 1 mM; ref Li et al., 2002; cited from earlier work

Sequence of LS β2D218A α4β2 receptors (P43681 27-627): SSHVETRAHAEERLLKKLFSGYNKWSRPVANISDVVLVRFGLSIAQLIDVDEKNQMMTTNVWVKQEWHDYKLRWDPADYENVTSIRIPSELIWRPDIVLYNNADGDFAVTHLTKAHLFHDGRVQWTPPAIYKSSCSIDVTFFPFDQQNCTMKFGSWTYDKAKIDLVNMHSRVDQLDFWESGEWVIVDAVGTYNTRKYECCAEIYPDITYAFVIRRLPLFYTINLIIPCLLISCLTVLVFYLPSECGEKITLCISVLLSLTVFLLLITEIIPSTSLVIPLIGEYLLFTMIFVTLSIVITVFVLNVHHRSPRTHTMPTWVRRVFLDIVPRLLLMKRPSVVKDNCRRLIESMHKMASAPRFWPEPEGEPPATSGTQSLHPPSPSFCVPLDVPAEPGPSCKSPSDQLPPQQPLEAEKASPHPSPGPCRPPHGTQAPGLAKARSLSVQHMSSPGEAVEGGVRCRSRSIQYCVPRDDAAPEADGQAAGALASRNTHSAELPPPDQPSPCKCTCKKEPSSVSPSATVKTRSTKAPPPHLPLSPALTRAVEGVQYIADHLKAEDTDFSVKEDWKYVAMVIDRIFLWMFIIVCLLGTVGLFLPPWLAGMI
Sequence of LS β2D218A α4β2 receptors (P17787 26-502 D218A): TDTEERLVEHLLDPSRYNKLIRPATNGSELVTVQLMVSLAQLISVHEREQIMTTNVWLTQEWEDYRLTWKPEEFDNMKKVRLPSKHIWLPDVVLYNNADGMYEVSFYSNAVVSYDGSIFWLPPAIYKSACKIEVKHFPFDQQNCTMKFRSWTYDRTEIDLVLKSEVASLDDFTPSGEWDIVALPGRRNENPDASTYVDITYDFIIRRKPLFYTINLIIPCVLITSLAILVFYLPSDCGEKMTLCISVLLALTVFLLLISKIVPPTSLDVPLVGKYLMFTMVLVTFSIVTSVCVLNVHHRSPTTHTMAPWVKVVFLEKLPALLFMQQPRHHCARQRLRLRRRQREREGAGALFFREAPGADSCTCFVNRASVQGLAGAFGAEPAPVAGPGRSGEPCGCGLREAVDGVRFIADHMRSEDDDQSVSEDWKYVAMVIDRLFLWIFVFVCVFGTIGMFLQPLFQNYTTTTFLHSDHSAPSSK
Sequence of low sensitivity (LS) α4β2 nicotinic acetylcholine receptors (P43681 27-627): as the sequence (P43681 27-627) above
Sequence of low sensitivity (LS) α4β2 nicotinic acetylcholine receptors (P17787 26-502): as the sequence (P17787 26-502 D218A) above, with A193D counted along it
Sequence of HS β2D218A α4β2 receptors (P43681 27-627): as the sequence (P43681 27-627) above
Sequence of HS β2D218A α4β2 receptors (P17787 26-502 D218A): as the sequence (P17787 26-502 D218A) above
Sequence of high sensitivity (HS) α4β2 nicotinic acetylcholine receptors (P43681 27-627): as the sequence (P43681 27-627) above
Sequence of high sensitivity (HS) α4β2 nicotinic acetylcholine receptors (P17787 26-502): as the sequence (P17787 26-502 D218A) above, with A193D counted along it
Sequence of α7 nicotinic acetylcholine receptors (P36544 23-502): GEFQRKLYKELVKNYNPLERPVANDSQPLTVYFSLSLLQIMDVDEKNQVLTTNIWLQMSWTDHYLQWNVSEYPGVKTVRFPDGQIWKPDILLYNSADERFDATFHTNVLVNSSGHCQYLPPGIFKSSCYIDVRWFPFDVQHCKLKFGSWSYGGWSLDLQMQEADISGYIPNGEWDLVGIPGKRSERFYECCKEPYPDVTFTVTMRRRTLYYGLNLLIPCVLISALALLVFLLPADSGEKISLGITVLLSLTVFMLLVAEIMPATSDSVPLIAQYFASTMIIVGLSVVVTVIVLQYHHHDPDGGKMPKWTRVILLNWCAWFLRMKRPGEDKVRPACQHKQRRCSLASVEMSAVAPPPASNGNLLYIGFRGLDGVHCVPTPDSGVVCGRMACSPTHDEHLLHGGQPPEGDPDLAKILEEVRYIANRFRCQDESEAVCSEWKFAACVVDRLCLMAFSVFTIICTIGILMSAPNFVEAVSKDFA

Compound: CC(=O)OCC[N+](C)(C)C [ACh, acetylcholine chloride]
- nH ± S.E.M. ([1]; HEPES ND-96 buffer): 1.0 ± 0.1
- nH ± S.E.M. ([1]; phosphate ND-96 buffer): 0.8 ± 0.2
- Hill slope ([2]; acetylcholine, α7, phosphate ND-96 buffer): 0.79 ± 0.13
- nH ± S.E.M. [3]: 1.2 ± 0.1 and 1.2 ± 0.2
- change of acetylcholine pEC50 [4]: not significantly changed
- nH ± S.E.M. [4]: 0.9 ± 0.2 and 1.0 ± 0.2
- nH ± S.E.M. ([5]; HEPES ND-96 buffer): 1.1 ± 0.3
- nH ± S.E.M. ([5]; phosphate ND-96 buffer): 0.9 ± 0.3

Compound: O=S(=O)(O)CCN1CCN(CCO)CC1 [HEPES, 4-(2-hydroxyethyl)-1-piperazineethanesulfonic acid]
- potentiation by HEPES ([1]; HEPES co-applied with 100 μM acetylcholine, LS β2D218A, phosphate ND-96): remained insensitive
- effect of HEPES on responses to acetylcholine ([2]; HEPES ≤ 10 mM co-applied with 1 mM acetylcholine, α7): little observable effect
- effect of HEPES on acetylcholine response ([3]; HEPES co-applied with 100 μM acetylcholine, LS, phosphate ND-96): only a slight inhibition of the response with no observable potentiation
- decrease of SERT currents [6]: 10–50%
- pIC50 [4]: 3.37
- potentiation of the acetylcholine-induced Imax currents ([4]; 100 μM HEPES, HS, phosphate ND-96): 194%
- current induced by HEPES alone ([4]; HEPES applied alone to α4β2 expressing oocytes (data not shown)): no induced current
- maximum potentiation of acetylcholine induced responses ([4]; HEPES co-applied with 10 μM acetylcholine, HS, 2 mM phosphate ND-96, pH 7.4): 190%
- potentiation by HEPES ([5]; HEPES co-applied with 10 μM acetylcholine, HS β2D218A, phosphate ND-96): not potentiated

Compound: Tris (hydroxymethyl)-aminomethane hydrochloride
- effect of Tris on acetylcholine response ([3]; Tris ≤ 10 mM co-applied with 100 μM acetylcholine, LS, phosphate ND-96): only slightly inhibited
- effect of Tris on the dFBr potentiated response ([3]; Tris ≤ 10 mM, with 1 μM dFBr and acetylcholine, LS, phosphate ND-96): only slightly inhibited
- inhibition of acetylcholine response ([4]; 10 mM Tris co-applied with 10 μM acetylcholine, HS, phosphate ND-96): 50%
- inhibition of the dFBr potentiated acetylcholine induced response ([4]; 10 mM Tris, with 1 μM dFBr and acetylcholine, HS, phosphate ND-96): about 50%
- current induced by Tris alone ([4]; Tris in phosphate buffer in the absence of acetylcholine): did not induce currents

Compound: C=CC(C)(C)c1[nH]c2cc(Br)ccc2c1CCNC [dFBr, Desformylflustrabromine · HCl]
- pEC50 [3]: 5.89
- pIC50 [3]: 5.20
- Imax (%) potentiation ([3]; LS, HEPES ND-96 buffer): 260%
- Imax (%) potentiation ([3]; LS, phosphate ND-96 buffer): 370%
- pEC50 [4]: 5.49
- pIC50 [4]: 4.10
- Imax (%) potentiation [4]: 370% and 360%
- potentiation by dFBr [4]: ~360%
- pEC50 ([4]; EC50 (potentiation)): 5.60
- pIC50 ([4]; IC50 (inhibition phase)): 4.30
